Converted amounts (≈) assume the structure as drawn. Each block holds one molecule with its values, some of them ahead of it.
Legend:
Erythrocytes (RBC) = test: The haemolytic assay
Protocol: Erythrocytes (RBC) were isolated from human blood (EDTA whole blood, collected randomly). 50 ul of the 10% RBC suspension (in PBS) was added to 2 ml of sample solutions (concentration range from 0.1 ug/ml to 400 ug/ml) in PBS. The mixture was vortexed briefly and sat for 60 min at room temperature. The mixture was spun at 3 K for 10 min and the relative amounts of lysed hemoglobin in the supernatant were measured at 540 nm.

Y79 (retinoblastoma) = test: Inhibition of eye cancer cells Y79 (retinoblastoma), MTT; assay type: cell-based, human; settings: 2 days
Protocol: Cells: Human Eye cancer cells Y79 (retinoblastoma) are cultured in RPMI1640 medium supplemented with 20% FCS, glutamine and antibiotics.
Starting cells concentration: 400 K per ml in a 24-well plate.
Drug: Tig-S and Tig-R (100× stock solution in 10%DMSO-90% RPMI-1640).
Drug-treatment: Cells were cultured with or without drug (DMSO control) for 2 days. After Drug-treatment, the quantity of live cells is determined with MTT assay*. With this method, the percentage of cell growth with drugs was determined by comparing to those of no-drug (DMSO) control.
MTT assay. To measure the amount of live cells, MTT (3-[4,5-Dimethylthiazol-2-yl]-2,5-diphenyl-tetrazolium bromide) (0.5 mg/ml) was added to cultures and incubated for an hour. Cells were then collected by centrifugation. The formation of formazan (proportion to live cells activity) in the cells was dissolved with DMSO and the O.D. at 490 nm was measured by an ELISA reader. The MTT level of cells before drug-treatment (T0) and after the drug-treatment (TD) was measured. The % cell-growth (%G) is calculated as: %G = (TD-T0) / (TC-T0) × 100 where TC or TD represent O.D. readings of control or drug-treated cells.
When T0 > TD, then the negative growth (cytotoxicity) is expressed as - % of the control and is calculated as: - %G = (TD-T0) / T0) × 100.

cancer cells = test: MTT cytotoxic assay of esterification products (Cytotoxicity activity); assay type: cell-based, human
Summary of the method: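 Cytotoxicity was read by MTT (Carmichael method, modified), with cells seeded 24 h ahead of treatment. Sixteen human cancer lines spanning bone, lung, bladder, ovary, colon, pancreas, prostate, skin, mouth, kidney, breast, liver, brain, leukemia and cervix were used. Test samples were acyl chloride esterification products of triterpenes, as mixtures or HPLC-purified compounds.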

WI38 = test: MTT assay, normal human lung fibroblast (WI38); assay type: cell-based
Protocol: Method: A. Cells • -WI38 is a Normal Lung fibroblast. Cells were grown in MEM medium supplemented with 10% FCS, antibiotics and glutamine. 20 K cells were seeded per well (96-welled plate) for one day before drug-treatment • -ES2 is an Ovary Clear cells carcinoma. Cells were grown in RPMI-1640 medium supplemented with 10% FCS, antibiotics and glutamine. 10 K cells were seeded per well (96-welled plate) for one day before drug-treatment.
B. Drug treatment: • -Drug: Tig-S. stored as 1000x stock solution in DMSO. • -Drug concentration used: from 0.15 - 20 ug/ml. • -Drug-treatment was carried out for 2 days (ES2) or 6 days (WI38). For the 6 days incubation, cells were fed with fresh medium (with drug) on day 3 and 5.
C. At the end of the drug-treatment, cytotoxic test was performed with MTT assay.

[1] = system: DR5 (TNFRSF10B) in ES2 cells; test: Induction of DR5 in ES2 cells, Western blot; assay type: cell-based, human; settings: experiment 1, column head R 7.5, 2 days
[2] = esterification products isolated with HPLC, graded strong / moderate / weak

- IC50, eye cancer Y79 retinoblastoma (Y79 (retinoblastoma)): 7.5 µg/mL
Molecule: 24,28-O-Tigloyl-3β,16α, 21β, 22a, 24β, 28-hexahydroxyolean-12-ene [Tig-R]
- hemolytic activity (Erythrocytes (RBC); in words, no concentration given): no hemolytic activity
- hemolytic activity (Erythrocytes (RBC); up to 20 ug/ml): do not have hemolytic activity
- Cytotoxicity activity (cancer cells; [2]): strong
- IC50 in normal human fibroblast cells (WI38) (WI38; MTT): 10 to 15 µg/mL
- DR5 Western blot band intensity (Image J) [1]: 29902
- DR5 band intensity, % of DMSO [1]: 157%

Molecule: CC=C(C)C(=O)OCC1(C)C(O)CCC2(C)C1CCC1(C)C2CC=C2C3CC(C)(C)C(O)C(O)C3(CO)C(O)CC21C (stereo not shown) [Tig-N]
- hemolytic activity (Erythrocytes (RBC); up to 20 ug/ml): do not have hemolytic activity
- Cytotoxicity activity (cancer cells; [2]): moderate
- Cytotoxicity activity (cancer cells; esterification products of E4A—Tig—N with senecioyl chloride): moderate

Molecule: CC=C(C)C(=O)OCC1(C)C(O)CCC2(C)C1CCC1(C)C2CC=C2C3CC(C)(C)C(OC(=O)C(C)=CC)C(O)C3(CO)C(O)CC21C (stereo not shown) [Tig-S]
- IC50, eye cancer Y79 retinoblastoma (Y79 (retinoblastoma)): 0.1 µg/mL (≈ 0.149 µM)
- IC50, WI38 cells (WI38; 6 days drug treatment, MTT): 1.5 µg/mL (≈ 2.24 µM)
- % of the control cell growth, WI38 (WI38; at 10 ug/ml): about 55%
- MTT OD as % of the original value, WI38 (WI38; at 20 ug/ml): about 90%
- cell loss or death, WI38 (WI38; at 20 ug/ml): about 10%
- cells died, WI38 (WI38; with 10 ug/ml): 10%

Source: US20230340012A1, “NATURAL AND SYNTHETIC COMPOUNDS FOR TREATING CANCER AND OTHER DISEASES” (PACIFIC ARROW LIMITED, priority 2009, published 2023)
